US10273267B2, “Beta-hairpin peptidomimetics as selective elastase inhibitors” (POLYPHOR AG, priority 2013, dated 2019)
Where a SMILES comes first, the peptide text is derived from it. [ ]: non-standard residue; d: D form. Oic = O=C(O)[C@@H]1C[C@@H]2CCCC[C@@H]2N1; Gly(octyl) = CCCCCCCC[C@H](N)C(=O)O; hTyr = N[C@@H](CCc1ccc(O)cc1)C(=O)O; β3hQ = NC(=O)CC[C@H](N)CC(=O)O; β3hK = NCCCC[C@H](N)CC(=O)O; hSer = N[C@@H](CCO)C(=O)O

Experiments:
Type in all cases: biochemical
[1] = molecular target: T1, human neutrophil elastase (Homo sapiens, UniProt P08246); assay: Inhibition of human neutrophil elastase (hydrolysis of MeOSuc-AAPV-pNA); conditions: substrate MeOSuc-AAPV-pNA 0.3 mM, enzyme 10 nM, 37° C., pH 8; read-out: Human neutrophil elastase (hNE) IC50
T1 construct: purchased Serva Electrophoresis, Germany
T1 sequence (P08246 30-267): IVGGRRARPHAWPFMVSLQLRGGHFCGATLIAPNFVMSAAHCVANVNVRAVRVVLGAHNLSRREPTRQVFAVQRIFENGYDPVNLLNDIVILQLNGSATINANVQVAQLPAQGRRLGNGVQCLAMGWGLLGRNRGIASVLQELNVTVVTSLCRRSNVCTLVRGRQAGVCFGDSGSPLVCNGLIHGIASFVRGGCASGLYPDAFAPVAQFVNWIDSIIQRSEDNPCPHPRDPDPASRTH
Summary of the method: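 MeOSuc-AAPV-pNA (0.3 mM) hydrolysis by 10 nM enzyme at 37° C with serially diluted peptides (1% DMSO) in 50 mM Tris pH 8, 300 mM NaCl, 0.01% Tween20. pNA release read at 405 nm over 30 minutes; IC50 from 4-parameter Hill fit.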

[2] = molecular target: T2, porcine pancreatic elastase (Sus scrofa, UniProt P00772); assay: Inhibition of porcine pancreatic elastase (hydrolysis of MeOSuc-AAA-pNA); conditions: for hNE/PPE selectivity: ratio of PPE IC50 to hNE IC50; for IC50: substrate MeOSuc-AAA-pNA 1 mM, enzyme 15 nM, 37° C., pH8, read-out: Porcine pancreatic elastase (PPE) IC50
T2 construct: purchased Sigma, USA
T2 sequence (P00772 27-266): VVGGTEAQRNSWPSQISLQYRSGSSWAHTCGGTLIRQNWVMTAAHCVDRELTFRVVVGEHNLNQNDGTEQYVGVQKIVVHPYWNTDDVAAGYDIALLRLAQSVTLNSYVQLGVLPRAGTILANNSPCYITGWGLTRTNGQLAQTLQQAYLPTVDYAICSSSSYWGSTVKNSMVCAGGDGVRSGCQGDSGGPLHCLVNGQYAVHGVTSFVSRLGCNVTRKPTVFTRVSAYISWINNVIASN
Summary of the method: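 Elastase (15 nM) incubated at 37 °C with 1 mM MeOSuc-AAA-pNA and serially diluted peptides (0.5% DMSO) in 50 mM Tris pH 8, 100 mM NaCl, 0.01% Tween20. pNA release read at 405 nm over 30 min; IC50 from 4-parameter Hill fit.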

human proteinase 3 = molecular target: T3, human proteinase 3 (Homo sapiens, UniProt P24158); assay: Inhibition of human proteinase 3 (substrate Boc-Ala-Ala-Nva-SBzl); conditions: for hNE/hPr3 selectivity: ratio of hPr3 IC50 to hNE IC50; for IC50: substrate Boc-Ala-Ala-Nva-SBzl 1 mM, enzyme 10 nM, 37° C., pH7.4, read-out: Human proteinase 3 (hPr3) IC50
T3 construct: purchased Elastin Products Company, USA
T3 sequence (P24158 28-248): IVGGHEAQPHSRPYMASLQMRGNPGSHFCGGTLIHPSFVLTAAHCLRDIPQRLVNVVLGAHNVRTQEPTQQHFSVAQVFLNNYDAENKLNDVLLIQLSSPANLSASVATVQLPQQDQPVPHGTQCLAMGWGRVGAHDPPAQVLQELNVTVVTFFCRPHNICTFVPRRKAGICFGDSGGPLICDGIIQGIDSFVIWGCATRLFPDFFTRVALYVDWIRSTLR
Summary of the method: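 Enzyme at 10 nM incubated at 37°C with 1 mM thiobenzyl ester substrate, 250 μM 4,4′-dithiodipyridine and serial peptide dilutions (0.5% DMSO) in Tris pH 7.4, 150 mM NaCl, 0.01% Tween20. Absorbance at 340 nm followed over 30 min; IC50 from 4-parameter Hill fit.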

SMILES	IC50 [1]	hNE/PPE selectivity [2]	IC50 [2]	hNE/hPr3 selectivity (human proteinase 3)	IC50 (human proteinase 3)
CCCCCCCC[C@@H]1NC(=O)[C@H](C(C)C)NC(=O)[C@@H](Cc2ccc(O)cc2)NC(=O)[C@H]([C@@H](C)O)NC(=O)[C@H](CCCCN)NC(=O)[C@H](CCC(N)=O)NC(=O)[C@@H]2CCCN2C(=O)[C@@H]2CCCN2C(=O)[C@H]([C@@H](C)CC)NC(=O)[C@H](CO)NC(=O)[C@H](C)NC(=O)[C@H]([C@@H](C)O)NC(=O)[C@H](CCC(=O)O)NC1=O [Example 23, Cyclo(-OctGly-Glu-Thr-Ala-Ser-Ile-Pro-Pro-Gln-Lys-Thr-^DTyr-Val-)] (cyclo([Gly(octyl)]ETASIPPQKT[dY]V))	6 nM	1717	10300 nM	1717	10300 nM
CCCCCCCC[C@@H]1NC(=O)[C@@H]2CCCN2C(=O)[C@H]2CCCN2C(=O)[C@H](CCO)NC(=O)[C@H](CCCCN)NC(=O)[C@H](CCC(N)=O)NC(=O)[C@@H]2CCCN2C(=O)[C@@H]2CCCN2C(=O)[C@H]([C@@H](C)CC)NC(=O)[C@H](CO)NC(=O)[C@H](C)NC(=O)[C@H]([C@@H](C)O)NC(=O)[C@H](CCC(=O)O)NC1=O [Example 4, Cyclo(-OctGly-Glu-Thr-Ala-Ser-Ile-Pro-Pro-Gln-Lys-hSer-^DPro-Pro-)] (cyclo([Gly(octyl)]ETASIPPQK[hSer][dP]P))	8.6 nM	157	1350 nM	119	1020 nM
CCCCCCCC[C@@H]1NC(=O)[C@@H]2CCCN2C(=O)[C@H]2CCCN2C(=O)[C@H]([C@@H](C)O)NC(=O)C[C@H](CCCCN)NC(=O)[C@H](CCC(N)=O)NC(=O)[C@@H]2CCCN2C(=O)[C@@H]2CCCN2C(=O)[C@H]([C@@H](C)CC)NC(=O)[C@H](CO)NC(=O)[C@H](C)NC(=O)[C@H]([C@@H](C)O)NC(=O)[C@H](CCC(=O)O)NC1=O [Example 37, Cyclo(-OctGly-Glu-Thr-Ala-Ser-Ile-Pro-Pro-Gln-[H-β^3-H Lys-OH]-Thr-^DPro-Pro-)] (cyclo([Gly(octyl)]ETASIPPQ[β3hK]T[dP]P))	41.5 nM	212	8800 nM	371	15400 nM
CCCCCCCC[C@@H]1NC(=O)[C@@H]2CCCN2C(=O)[C@H]2CCCN2C(=O)[C@H]([C@@H](C)O)NC(=O)[C@H](CCCCN)NC(=O)C[C@H](CCC(N)=O)NC(=O)[C@@H]2CCCN2C(=O)[C@@H]2CCCN2C(=O)[C@H]([C@@H](C)CC)NC(=O)[C@H](CO)NC(=O)[C@H](C)NC(=O)[C@H]([C@@H](C)O)NC(=O)[C@H](CCC(=O)O)NC1=O [Example 36, Cyclo(-OctGly-Glu-Thr-Ala-Ser-Ile-Pro-Pro-[H-β^3-HGln-OH]-Lys-Thr-^DPro-Pro-)] (cyclo([Gly(octyl)]ETASIPP[β3hQ]KT[dP]P))	16.2 nM	685	11100 nM	364	5900 nM
CCCCCCCC[C@@H]1NC(=O)[C@@H]2CCCN2C(=O)[C@H]2CCCN2C(=O)[C@H]([C@@H](C)O)NC(=O)[C@H](CCCCN)NC(=O)[C@H](CCC(N)=O)NC(=O)[C@@H]2C[C@@H]3CCCC[C@@H]3N2C(=O)[C@@H]2CCCN2C(=O)[C@H]([C@@H](C)CC)NC(=O)[C@H](CO)NC(=O)[C@H](C)NC(=O)[C@H]([C@@H](C)O)NC(=O)[C@H](CCC(=O)O)NC1=O [Example 10, Cyclo(-OctGly-Glu-Thr-Ala-Ser-Ile-Pro-Oic-GI n-Lys-Thr-^DPro-Pro-)] (cyclo([Gly(octyl)]ETASIP[Oic]QKT[dP]P))	7.3 nM	4959	36200 nM	>13699	> 100000 nM

These reach a lower IC50 [1]. Values come first.

IC50 [1]	hNE/PPE selectivity [2]	IC50 [2]	hNE/hPr3 selectivity (human proteinase 3)	IC50 (human proteinase 3)	SMILES
1.4 nM	357	500 nM	714	1000 nM	CCCCCCCC[C@@H]1NC(=O)[C@@H]2CCCN2C(=O)[C@H]2CCCN2C(=O)[C@H](CO)NC(=O)[C@H](CCCCN)NC(=O)[C@H](CCC(N)=O)NC(=O)[C@@H]2CCCN2C(=O)[C@@H]2CCCN2C(=O)[C@H]([C@@H](C)CC)NC(=O)[C@H](CO)NC(=O)[C@H](C)NC(=O)[C@H]([C@@H](C)O)NC(=O)[C@H](CCc2ccc(O)cc2)NC1=O [Example 47] (cyclo([Gly(octyl)][hTyr]TASIPPQKS[dP]P))
1.3 nM	>76923	> 100000 nM	>76923	> 100000 nM	CCCCCCCC[C@@H]1NC(=O)[C@@H](CCC(=O)O)NC(=O)[C@H]2CCCN2C(=O)[C@H]([C@@H](C)O)NC(=O)[C@H](CCCCN)NC(=O)[C@H](CCC(N)=O)NC(=O)[C@@H]2CCCN2C(=O)[C@@H]2CCCN2C(=O)[C@H]([C@@H](C)CC)NC(=O)[C@H](CO)NC(=O)[C@H](C)NC(=O)[C@H]([C@@H](C)O)NC(=O)[C@H](CCC(=O)O)NC1=O [Example 40, Cyclo(-OctGly-Glu-Thr-Ala-Ser-Ile-Pro-Pro-Gln-Lys-Thr-^DPro-^DGlu-)] (cyclo([Gly(octyl)]ETASIPPQKT[dP][dE]))
